Calls of active or inactive are those of the source. The rule behind the calls is not given here.

Data set [1] is described as follows: Toxicity in micronucleus (unknown origin) assessed as induction of clastogenesis by micronucleus assay.
Data set [2] is described as follows: Oral bioavailability in cynomolgus monkey at 1 mg/kg. It counts as ADME, organism-based, Macaca fascicularis. To be noted: in vivo.
For the next data set, the system named is MDA-MB-231. As to the kind of experiment: Antiproliferative activity against human MDA-MB-231 cells incubated for 72 hrs by [3H] thymidine incorporation assay. It counts as functional, cell-based.
Data set [3] concerns the target Non-receptor tyrosine-protein kinase TYK2 (Homo sapiens, UniProt P29597). As to the kind of experiment: Inhibition of recombinant TYK2 (unknown origin) by scintillation counting method.
The target in data set [4] is Tyrosine-protein kinase JAK2 (Homo sapiens, UniProt O60674). As to the kind of experiment: Inhibition of recombinant JAK2 (unknown origin) using 5-FAM-KKKKEEIYFFFG-OH substrate and ATP incubated for 180 mins by […] method.
Data set [5] relates to Mus musculus. The data set is described as follows: Inhibition of JAK2 in mouse pharamcodynamic model assessed as reduction in STAT5 phosphorylation at 5 mg/kg, po measured after 8 hrs. It is filed as functional.
Data set [6] has as its target Tyrosine-protein kinase JAK2 (Mus musculus, UniProt Q62120). As to the kind of experiment: Inhibition of JAK2 in mouse BAF3 cells assessed as reduction in STAT5 phosphorylation incubated for 2 hrs by Western blot method. It is filed as cell-based. In general terms: Immunoblotting shows a protein as a band on a membrane.
Data set [7] addresses T1, Tyrosine-protein kinase JAK3 (Homo sapiens, UniProt P52333).
T1 sequence (P52333 whole entry): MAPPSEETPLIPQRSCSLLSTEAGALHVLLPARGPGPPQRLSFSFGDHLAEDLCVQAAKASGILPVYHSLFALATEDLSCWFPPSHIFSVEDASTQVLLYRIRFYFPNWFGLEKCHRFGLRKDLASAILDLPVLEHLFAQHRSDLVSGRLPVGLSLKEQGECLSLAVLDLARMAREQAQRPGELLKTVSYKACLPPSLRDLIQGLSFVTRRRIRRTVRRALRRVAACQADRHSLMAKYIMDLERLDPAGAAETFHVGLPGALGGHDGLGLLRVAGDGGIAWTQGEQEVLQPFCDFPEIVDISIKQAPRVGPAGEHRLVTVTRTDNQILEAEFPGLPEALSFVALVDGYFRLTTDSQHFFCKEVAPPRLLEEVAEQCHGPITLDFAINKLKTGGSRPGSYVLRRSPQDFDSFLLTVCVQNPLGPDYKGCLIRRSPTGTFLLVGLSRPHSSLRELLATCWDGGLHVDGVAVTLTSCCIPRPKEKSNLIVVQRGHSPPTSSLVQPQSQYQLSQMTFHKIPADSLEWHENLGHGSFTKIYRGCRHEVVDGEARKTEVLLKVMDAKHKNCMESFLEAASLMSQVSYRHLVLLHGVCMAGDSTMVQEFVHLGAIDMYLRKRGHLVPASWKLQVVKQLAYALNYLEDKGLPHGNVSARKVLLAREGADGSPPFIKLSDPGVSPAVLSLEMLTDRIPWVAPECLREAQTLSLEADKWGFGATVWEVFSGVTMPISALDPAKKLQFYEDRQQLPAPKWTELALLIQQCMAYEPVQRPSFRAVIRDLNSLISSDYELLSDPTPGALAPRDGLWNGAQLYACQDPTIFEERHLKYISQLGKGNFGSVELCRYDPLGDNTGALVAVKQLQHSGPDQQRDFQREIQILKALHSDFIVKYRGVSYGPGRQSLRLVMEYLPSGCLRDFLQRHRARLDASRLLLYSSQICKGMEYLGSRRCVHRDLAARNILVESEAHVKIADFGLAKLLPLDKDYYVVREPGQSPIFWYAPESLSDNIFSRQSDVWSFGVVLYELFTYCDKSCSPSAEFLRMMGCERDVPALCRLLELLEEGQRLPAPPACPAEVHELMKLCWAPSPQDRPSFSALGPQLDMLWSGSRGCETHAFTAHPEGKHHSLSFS
As to the kind of experiment: Inhibition of recombinant JAK3 (unknown origin) using 5-FAM-KKKKEEIYFFFG-OH substrate and ATP incubated for 180 mins by […] method.

In a further data set the test system is Rattus norvegicus. The data set is described as follows: Reduction in reticulocytes in rat at 15 mg/kg/day for 2 weeks. It counts as functional, organism-based.
A short description of data set [8]: Half in mouse liver microsomes. It is filed as ADME.
Data set [9] relates to Mus musculus. The data set is described as follows: Inhibition of JAK2 in mouse pharamcodynamic model assessed as reduction in STAT5 phosphorylation at 30 mg/kg, po after 18 hrs. It is filed as functional, organism-based.
For another data set, the system named is BaF3. As to the kind of experiment: Antiproliferative activity against mouse BAF3 cells expressing JAK2 V617F mutant incubated for 72 hrs by [3H] thymidine incorporation assay. It counts as functional, cell-based. Background: Uptake of a labelled nucleoside into DNA is a usual measure of proliferation.
Data set [10] relates to Mus musculus. The data set is described as follows: Oral bioavailability in mouse at 10 mg/kg. To be noted: in vivo. It counts as ADME, organism-based.
The nature of data set [11]: Inhibition of CYP450 in human liver microsomes. It is filed as ADME.
Data set [12] is described as follows: AUC (0 to 72 hrs) in rat. It counts as ADME, organism-based. Further details: time < 72 hr. Conditions: in vivo.
Data set [13] has as its target T1, Tyrosine-protein kinase JAK3. The data set is described as follows: Binding affinity to JAK3 (unknown origin) assessed as dissociation constant.
The subject of another data set is Salmonella typhimurium. As to the kind of experiment: Mutagenicity in Salmonella typhimurium by Ames test. It is filed as toxicity, organism-based. To be noted: salmonella enterica subsp. enterica serovar typhimurium. (In general: In the Ames test, an excess of revertant colonies over the control signals mutagenicity.)
The target of data set [14] is T2, Tyrosine-protein kinase JAK1 (Homo sapiens, UniProt P23458). The data set is described as follows: Inhibition of recombinant JAK1 (unknown origin) using 5-FAM-KKKKEEIYFFFG-OH substrate and ATP incubated for 180 mins by […] method.
The nature of data set [15]: Clearance in rat at 1 mg/kg, iv and 1 mg/kg, po. Conditions: in vivo. It counts as ADME, organism-based.
A short description of data set [16]: AUC (0 to 24 hrs) in rat assessed as drug tolerability at 15 mg/kg/day for 2 weeks measured on day 14. It counts as ADME, organism-based. Details: time < 24 hr, dose 15 mg/kg/day. To be noted: in vivo.
For data set [17], the target named is T2, Tyrosine-protein kinase JAK1. As to the kind of experiment: Binding affinity to JAK1 (unknown origin) assessed as dissociation constant.
For the next data set, the target named is hERG (Homo sapiens, UniProt Q12809). The data set is described as follows: Inhibition of human ERG channel at 30 uM.
For data set [18], the target named is T3, Nuclear receptor subfamily 1 group I member 2 (Homo sapiens, UniProt O75469).
T3 sequence (O75469 whole entry): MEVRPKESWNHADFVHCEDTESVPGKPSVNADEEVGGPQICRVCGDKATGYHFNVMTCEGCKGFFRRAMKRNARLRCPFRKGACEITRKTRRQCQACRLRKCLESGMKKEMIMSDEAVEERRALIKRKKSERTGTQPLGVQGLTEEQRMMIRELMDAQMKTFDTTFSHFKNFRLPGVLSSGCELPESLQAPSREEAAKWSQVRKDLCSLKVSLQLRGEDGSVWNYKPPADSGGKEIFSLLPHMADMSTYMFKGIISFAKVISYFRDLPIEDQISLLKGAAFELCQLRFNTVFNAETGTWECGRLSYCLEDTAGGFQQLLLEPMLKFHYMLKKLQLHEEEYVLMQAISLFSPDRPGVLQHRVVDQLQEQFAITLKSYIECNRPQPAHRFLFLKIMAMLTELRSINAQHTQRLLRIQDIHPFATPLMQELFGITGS
The data set is described as follows: Activation of PXR (unknown origin). It counts as ADME.

T2 sequence (P23458 whole entry): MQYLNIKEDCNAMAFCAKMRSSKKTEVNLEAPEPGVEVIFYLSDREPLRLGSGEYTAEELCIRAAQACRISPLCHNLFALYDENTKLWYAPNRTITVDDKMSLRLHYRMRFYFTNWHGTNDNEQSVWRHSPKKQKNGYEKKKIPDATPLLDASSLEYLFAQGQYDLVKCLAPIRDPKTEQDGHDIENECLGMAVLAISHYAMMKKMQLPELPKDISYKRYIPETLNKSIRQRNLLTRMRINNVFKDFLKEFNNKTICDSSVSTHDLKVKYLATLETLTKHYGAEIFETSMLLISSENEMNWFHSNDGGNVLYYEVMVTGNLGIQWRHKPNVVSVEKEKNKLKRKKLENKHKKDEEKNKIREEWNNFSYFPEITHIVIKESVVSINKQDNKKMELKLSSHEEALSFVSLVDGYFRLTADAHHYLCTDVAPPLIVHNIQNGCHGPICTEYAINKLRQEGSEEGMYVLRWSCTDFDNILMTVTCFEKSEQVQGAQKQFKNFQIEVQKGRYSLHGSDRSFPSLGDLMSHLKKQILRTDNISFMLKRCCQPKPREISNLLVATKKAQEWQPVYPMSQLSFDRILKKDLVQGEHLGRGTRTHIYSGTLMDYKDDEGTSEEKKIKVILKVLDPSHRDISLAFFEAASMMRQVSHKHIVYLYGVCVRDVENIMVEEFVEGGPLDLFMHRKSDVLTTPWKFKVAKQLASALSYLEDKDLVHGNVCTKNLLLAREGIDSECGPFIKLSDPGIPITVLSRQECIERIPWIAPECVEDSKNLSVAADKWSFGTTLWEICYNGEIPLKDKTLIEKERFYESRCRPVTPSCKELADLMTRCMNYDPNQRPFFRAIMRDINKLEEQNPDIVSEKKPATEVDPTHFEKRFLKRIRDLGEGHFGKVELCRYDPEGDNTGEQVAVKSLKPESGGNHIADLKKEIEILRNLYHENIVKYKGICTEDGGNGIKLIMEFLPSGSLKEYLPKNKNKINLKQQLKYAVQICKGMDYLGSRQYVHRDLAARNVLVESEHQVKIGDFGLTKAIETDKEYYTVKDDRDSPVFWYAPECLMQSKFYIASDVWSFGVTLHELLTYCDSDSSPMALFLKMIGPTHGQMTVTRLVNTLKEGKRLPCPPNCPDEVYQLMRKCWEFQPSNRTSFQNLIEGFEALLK
Sequence of Tyrosine-protein kinase JAK2 (Mus musculus, UniProt Q62120) (Q62120 whole entry): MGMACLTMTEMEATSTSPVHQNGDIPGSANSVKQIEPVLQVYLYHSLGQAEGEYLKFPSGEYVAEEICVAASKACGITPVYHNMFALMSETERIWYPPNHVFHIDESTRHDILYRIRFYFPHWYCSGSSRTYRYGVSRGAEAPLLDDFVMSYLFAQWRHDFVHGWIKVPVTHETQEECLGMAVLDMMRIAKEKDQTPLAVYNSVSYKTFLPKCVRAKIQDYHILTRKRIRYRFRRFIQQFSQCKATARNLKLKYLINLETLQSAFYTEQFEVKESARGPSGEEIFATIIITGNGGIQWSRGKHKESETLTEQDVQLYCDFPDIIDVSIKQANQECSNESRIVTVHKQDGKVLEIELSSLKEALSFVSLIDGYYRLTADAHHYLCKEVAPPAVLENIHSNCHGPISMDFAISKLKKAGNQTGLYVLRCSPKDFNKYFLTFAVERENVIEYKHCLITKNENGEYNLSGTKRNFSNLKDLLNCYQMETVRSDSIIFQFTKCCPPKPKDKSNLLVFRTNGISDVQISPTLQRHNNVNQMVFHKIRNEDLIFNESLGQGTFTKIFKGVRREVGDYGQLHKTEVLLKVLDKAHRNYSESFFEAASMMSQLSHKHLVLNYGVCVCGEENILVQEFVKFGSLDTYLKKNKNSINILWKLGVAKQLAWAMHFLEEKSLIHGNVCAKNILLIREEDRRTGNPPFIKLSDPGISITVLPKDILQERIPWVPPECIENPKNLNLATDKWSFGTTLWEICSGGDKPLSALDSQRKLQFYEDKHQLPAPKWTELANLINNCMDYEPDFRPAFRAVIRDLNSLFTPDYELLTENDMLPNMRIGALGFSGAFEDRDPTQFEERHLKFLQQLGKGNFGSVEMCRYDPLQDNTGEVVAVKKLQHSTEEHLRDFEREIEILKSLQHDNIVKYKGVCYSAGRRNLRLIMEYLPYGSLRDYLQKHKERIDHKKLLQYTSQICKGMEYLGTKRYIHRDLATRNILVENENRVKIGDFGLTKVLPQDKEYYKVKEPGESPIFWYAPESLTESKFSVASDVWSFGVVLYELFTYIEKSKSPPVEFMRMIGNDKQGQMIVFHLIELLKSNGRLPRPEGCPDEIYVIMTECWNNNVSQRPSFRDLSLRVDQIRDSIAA
Sequence of Non-receptor tyrosine-protein kinase TYK2 (P29597 whole entry): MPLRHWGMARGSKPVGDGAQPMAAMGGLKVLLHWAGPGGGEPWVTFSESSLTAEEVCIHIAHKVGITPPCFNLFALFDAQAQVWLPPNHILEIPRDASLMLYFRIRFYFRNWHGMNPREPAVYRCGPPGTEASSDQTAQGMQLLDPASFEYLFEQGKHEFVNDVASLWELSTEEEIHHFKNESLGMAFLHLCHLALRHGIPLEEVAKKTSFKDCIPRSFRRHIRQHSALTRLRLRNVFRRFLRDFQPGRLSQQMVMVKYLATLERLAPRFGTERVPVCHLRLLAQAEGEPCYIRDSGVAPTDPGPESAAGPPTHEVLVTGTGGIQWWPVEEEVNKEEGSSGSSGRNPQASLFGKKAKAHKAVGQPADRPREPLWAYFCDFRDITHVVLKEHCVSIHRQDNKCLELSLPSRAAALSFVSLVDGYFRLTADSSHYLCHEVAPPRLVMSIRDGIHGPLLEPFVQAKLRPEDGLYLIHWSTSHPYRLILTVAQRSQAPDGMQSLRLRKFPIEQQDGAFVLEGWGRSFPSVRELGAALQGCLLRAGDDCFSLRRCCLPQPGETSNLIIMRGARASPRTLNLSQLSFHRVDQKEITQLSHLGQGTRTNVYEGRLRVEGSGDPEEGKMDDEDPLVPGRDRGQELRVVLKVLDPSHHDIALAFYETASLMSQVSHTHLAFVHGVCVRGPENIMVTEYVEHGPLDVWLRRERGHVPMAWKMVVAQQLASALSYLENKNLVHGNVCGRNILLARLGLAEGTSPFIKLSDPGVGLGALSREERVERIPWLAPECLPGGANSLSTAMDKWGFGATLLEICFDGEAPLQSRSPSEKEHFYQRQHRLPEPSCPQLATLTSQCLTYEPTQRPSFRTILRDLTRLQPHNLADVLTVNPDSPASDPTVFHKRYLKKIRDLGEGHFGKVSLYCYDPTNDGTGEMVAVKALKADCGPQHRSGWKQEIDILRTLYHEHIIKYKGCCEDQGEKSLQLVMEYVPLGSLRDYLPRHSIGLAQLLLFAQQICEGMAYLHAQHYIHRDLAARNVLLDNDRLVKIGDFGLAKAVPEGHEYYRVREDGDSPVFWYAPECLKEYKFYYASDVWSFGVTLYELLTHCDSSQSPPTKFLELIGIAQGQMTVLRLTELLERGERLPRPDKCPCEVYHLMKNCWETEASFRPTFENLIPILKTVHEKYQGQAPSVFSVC
Sequence of hERG (Q12809 whole entry): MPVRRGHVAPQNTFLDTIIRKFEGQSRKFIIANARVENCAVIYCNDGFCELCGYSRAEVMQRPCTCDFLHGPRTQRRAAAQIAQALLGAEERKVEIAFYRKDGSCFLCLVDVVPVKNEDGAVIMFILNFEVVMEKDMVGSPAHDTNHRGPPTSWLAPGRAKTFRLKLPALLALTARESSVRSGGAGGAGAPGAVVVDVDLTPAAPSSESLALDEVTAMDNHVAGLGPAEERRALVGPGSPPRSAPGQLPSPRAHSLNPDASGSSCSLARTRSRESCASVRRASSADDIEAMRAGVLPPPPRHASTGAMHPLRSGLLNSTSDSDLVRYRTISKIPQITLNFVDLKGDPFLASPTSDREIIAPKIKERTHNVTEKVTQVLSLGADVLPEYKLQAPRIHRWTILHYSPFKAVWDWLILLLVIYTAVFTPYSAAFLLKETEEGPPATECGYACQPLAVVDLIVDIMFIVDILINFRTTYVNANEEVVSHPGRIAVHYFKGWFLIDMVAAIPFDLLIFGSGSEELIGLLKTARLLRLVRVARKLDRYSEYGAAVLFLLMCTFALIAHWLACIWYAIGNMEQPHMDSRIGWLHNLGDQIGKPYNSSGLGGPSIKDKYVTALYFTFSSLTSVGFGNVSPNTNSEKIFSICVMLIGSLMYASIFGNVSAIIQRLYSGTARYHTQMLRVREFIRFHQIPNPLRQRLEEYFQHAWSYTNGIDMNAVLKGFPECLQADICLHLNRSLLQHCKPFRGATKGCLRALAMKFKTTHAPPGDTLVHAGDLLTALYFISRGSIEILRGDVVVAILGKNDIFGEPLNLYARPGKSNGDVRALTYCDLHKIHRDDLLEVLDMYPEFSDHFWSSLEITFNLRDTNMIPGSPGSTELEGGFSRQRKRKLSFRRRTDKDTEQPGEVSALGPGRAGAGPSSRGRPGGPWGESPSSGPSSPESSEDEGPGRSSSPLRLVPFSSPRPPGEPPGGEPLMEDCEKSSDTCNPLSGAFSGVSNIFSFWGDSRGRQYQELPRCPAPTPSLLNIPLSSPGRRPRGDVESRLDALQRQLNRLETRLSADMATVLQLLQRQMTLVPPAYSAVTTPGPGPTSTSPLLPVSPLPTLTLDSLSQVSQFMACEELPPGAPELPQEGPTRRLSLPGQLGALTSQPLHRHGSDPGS

Take `CCn1c(C(=O)N(C2CC2)C2CC2)cc2c3c(ncn3C)c(Nc3cc(C)n(C)n3)nc21` [BMS-911543]: the Activity entry (in data set [1]; in the data set with Salmonella typhimurium) was “Non-toxic” throughout. The bioavailability – broadly, the share of a dose that reaches the circulation, judged against a reference dose that is usually intravenous – in data set [2] was 53%. Further, in the data set with MDA-MB-231, the result was inactive. Besides, the IC50 (as a rule, the concentration that gives 50% inhibition) in data set [3] was 66 nM; in [4] it was 1.1 nM; in [6], 65 nM; in data set [7] it was 360 nM; in the data set on BaF3, 70 nM; in data set [11] it was > 40000 nM. Besides, the IC50 in [14] was 75 nM. Further, the inhibition in vivo – broadly, the drop in the measured response relative to a control, in per cent – at 5 mg/kg with Mus musculus [5] was 50%. Further, the outcome in the data set on Rattus norvegicus was Active. Further, the half-life (in general, how long it takes for the measured level to halve) in data set [8] came out at 1.8 h. Moreover, in the data set with Mus musculus [9], the inhibition (in general, the relative decrease from the control value, in per cent) was “Active”. In the data set with Mus musculus [10], this compound returned an F of 100%. In addition, the AUC(0-t) (usually exposure summed from dosing to a finite time, without extrapolation to infinity) at 72 h in data set [12] was 11300 µM·h. The Kd (usually the free concentration of one partner at which half of the binding sites on the other are occupied at equilibrium, for simple one-to-one binding) stood at 360 nM in [13] and 110 nM in data set [17]. The compound further came in with a clearance in data set [15] of 0.7 mL/min/kg. Also, in [16], the area under the curve (AUC) (usually concentration integrated over time) at 24 h was determined as 3200 µM·h. Moreover, the inhibition at 30 µM on hERG is 20%. The half-maximal effective concentration (EC50) (in general, the midpoint of the concentration-response curve) in data set [18] is > 50000 nM.

The values are drawn from ChEMBL document CHEMBL3621135 (ACS Med Chem Lett, 2015).
